From ChEMBL document CHEMBL3875183, “Structure guided design of a series of selective pyrrolopyrimidinone MARK inhibitors” (Bioorg Med Chem Lett, 2017)

What was measured:
[1] = system: MDR1 (human MDR1 or rat MDR1a); experiment: Apparent permeability of the compound in pig LLC-PK1 cells expressing human MDR1 or rat MDR1a; format: ADME, cell-based, Sus scrofa
[2] = Clearance in dog plasma; format: ADME, cell-free, Canis lupus familiaris
[3] = Lipophilicity, logD of the compound; format: physicochemical; details: octanol/water
[4] = Half life in rat liver microsomes; format: ADME
[5] = Volume of distribution in rat; format: ADME; details: in vivo
[6] = Volume of distribution in dog; format: ADME, Canis lupus familiaris; details: in vivo
[7] = Half life in rat; format: ADME; details: in vivo
[8] = Half life in dog; format: ADME, Canis lupus familiaris; details: in vivo
[9] = Half life in human liver microsomes; format: ADME
[10] = Clearance in rat plasma; format: ADME, cell-free

SMILES | Papp [1] [nm/s] | clearance [2] [L/h/kg] | logD [3] | half-life [4] [min] | Vd [5] [L/kg] | Vd [6] [L/kg] | half-life [7] [min] | half-life [8] [min] | half-life [9] [min] | clearance [10] [L/h/kg]
CC1(C)C(=O)N(C2CCCCC2)c2nc(Nc3ccccc3)ncc21 | 120 |  |  |  |  |  |  |  |  | 
CC1(C)C(=O)N([C@H]2CCc3c(O)cccc32)c2nc(Nc3ccccc3)ncc21 |  | 4.08 | 2.92 | 9 | 16.2 | 4 | 48 | 48 | 10 | 20.5
